The text below walks through data of patent US20090246134A1, “COMPOSITIONS AND METHODS FOR MODULATING GATED ION CHANNELS” (PainCeptor Pharma Corporation, priority 2007, published 2009).

Values joined by “and” are separate entries in the source; they are usually repeats but may differ in a detail not shown here. Equal entries are not always repeated.

Data set [1] can be described thus: Plasma composition analysis, parent compound and metabolites by MS. In kind it is in vivo. To be noted: rat plasma. The method, then:
Rats receive compounds (5 mg/kg) dissolved in HPβCD 15%, dextrose 2.5%, pH 5 by intravenous (i.v). route or (25-30 mg/kg) dissolved in HPβCD 15%, dextrose 2.5%, […] (s.c.) route or (50-150 mg/kg) dissolved in HPβCD 15%, dextrose 2.5%, pH 5 by oral (p.o.) route. After the treatment, approximately 100 μl of blood sample is collected and the accurate bleeding time is recorded for each sample. Each blood sample is collected into Microvette blood collection tube containing anticoagulant lithium heparin. Following collection, the samples are centrifuged at […] for 15 minutes (to avoid haemolysis) and the plasma obtained from each is recovered and stored frozen (at −80° C.) pending analysis. Frozen samples are shipped on dry ice to quantify drug concentration within plasma after extraction procedure as previously described in Example 13.

The nature of data set [2]: Liver microsomes stability and metabolite identification (LC-MS), human. In kind it is in vitro ADME. An excerpt: The objective of this study is to analyze in vitro samples of Compound A and Compound B from rat and human microsomes using liquid chromatography quadrupole ion trap mass spectrometry and identify the nature of the metabolite(s) for each species.
The HPLC system consisted of a Thermo Surveror autosampler and a Thermo Surveyor MS pump (San Jose, Calif., USA). The LC-MS/MS system used was a Thermo LCQ Advantage (San Jose, Calif., USA). Data was acquired on a Dell Optiplex desktop computer (Round Rock, Tex., USA) equipped with operation system Windows XP professional. Data acquisition and analysis were performed using XCalibur 1.4 (San Jose, Calif., USA).
After the incubation period of the liver microsomes, the reaction was stopped with the addition of acetonitrile and frozen for transport. Before analysis, the samples were thawed at room temperature. They were vortexed vigorously and centrifuged at approximately 12000 g for 10 minutes. The supernatant was transferred into an injection vial for analysis.
A gradient mobile phase was used with a Thermo Phenyl 100×2 mm column with particle size of 5 μm. The initial mobile phase condition consisted of methanol and 0.1% formic acid solution at a ratio of 20:80, respectively. From 0 to 2 minutes, the ratio was maintained at 20:80. From 2 to 10 minutes, a linear gradient was applied and a ratio of 90:10 was maintained from 10 to 12 minutes. […] The flow rate was fixed at 0.25 mL/min.
The mass spectrometer was interfaced with the HPLC system using a pneumatic assisted electrospray ion source. The sheath gas was set to 15 units and the ESI electrode was set to 4000 V (positive mode). The capillary temperature was set at 300° C., and the capillary voltage was set to 13 V. The mass spectrometer was operating in full scan MS mode using one segment analysis (200-800).

The mark [3] stands for this setting: human microsomes 60 min (samples 14-16).

As for `COc1ccc(F)cc1-c1cc2c(c3c1CCN(C)C3)NC(=O)C2=NO` [Compound A, 5-(5-fluoro-2-methoxyphenyl)-6,7,8,9-tetrahydro-3-(hydroxyimino)-8-methyl-1H-pyrrolo[3,2-h]isoquinoline-2(3H)-one], in data set [1] (IV 5 mg/kg), the “Plasma Component: N-desMe or desEt” value was “Small” and the “Plasma Component: O-desMe” value was “Trace”. In data set [1] (PO 50 mg/kg), the “Plasma Component: N-desMe or desEt” value is recorded as “Small” and the “Plasma Component: O-desMe” value was “Trace”. In addition, in data set [2] (% peak area relative to parent at T0, 60 min incubation, human microsomes), the Total % metabolites came out at 8.08%. Also, in data set [2] (setting [3]), the “Compound A metabolite identification: m/z 342” value is recorded as “Yes”, the “Compound A metabolite identification: m/z 356 (parent)” value is “Yes”, the “Compound A metabolite identification: m/z 372” value is “Yes” and the “Compound A metabolite identification: m/z 412” value is on record as “no”. In data set [2] (human microsomes, time 0 min), the “Calc. Conc.” value was 4.91 µM and 6.54 µM. Moreover, in data set [2] (human microsomes, time 60 min), the “Calc. Conc.” value was 3.84 µM and 3.83 µM and 3.77 µM.
